# How the values were obtained:
# [1] = system: C2C12 myoblasts; assay: mtDNA content and ETC gene expression in C2C12 myoblasts; format: cell-based
# Protocol: C2C12 cell line (ATCC) was cultured in low glucose Dulbecco's modified eagle medium (DMEM) (Invitrogen) supplemented with 10% FBS (Invitrogen) and a mix of antibiotic and antimycotic (Invitrogen). To inhibit SIRT1, cells were treated the vehicle (0.001% DMSO) or 10 μM EX-527 (Tocris) for 12 h. C2C12 myoblasts were infected with an empty or SIRT1 adenovirus as described before (Gerhart-Hines et al., 2007) and the media was replaced with fresh DMEM for additional 48 h, after that the cells were treated as described before. To test the effects of hypoxia and HIFα stabilization in genome asyncrony, C2C12 myoblasts were exposed to 1% oxygen for 16 h or treated with the vehicle (0.001% DMSO) or DMOG (Cayman) for the same period of time.
# (§1) RNA from skeletal muscle tissue and C2C12 cells were extracted with RNeasy mini kit (Qiagen) according to the instructions and quantified using the NanoDrop 1000 spectrophotometer (Thermo Scientific). cDNA was synthesized with the iSCRIP cDNA synthesis kit (BioRad) using 600 ng of RNA. Quantitative RT-PCR reactions were performed using 1 μM of primers and LightCycler® 480 SYBR Green Master (Roche) on an LightCycler® 480 detection system (Roche). Calculations were performed by a comparative method (2-ΔCT) using 18S as an internal control. For mtDNA analysis, total DNA was extracted with DNeasy blood and tissue kit (Qiagen). mtDNA was amplified using primers specific for the mitochondrial cytochrome c oxidase subunit 2 (COX2) gene and normalized to genomic DNA by amplification of the ribosomal protein s18 (rps18) nuclear gene. Primers were designed using the IDT software (IDT) and the primer sequences can be found in Table 1.
# [2] = system: PGC-1α/β KO myotubes; assay: Gene expression (qPCR) and HIF-1α immunoblot in PGC-1α/β KO myotubes; format: cell-based, mice; settings: for nuclear- and mitochondrial-encoded genes: EX-527 48 h; for effect on induction of mitochondrial ETC genes by SIRT1 overexpression: PGC-1α/β knockout myocytes/myotubes; for effect on induction of mitochondrial ETC genes by SIRT1 overexpression / effect on NMN-induced expression of mitochondrially-encoded ETC genes: 1 mM DMOG or 10 μM DFO, 12 hours; for effect on NMN-induced expression of mitochondrially-encoded ETC genes: primary PGC-1α/β KO myotubes
# Protocol: Primary myoblasts cells were isolated from WT, SIRT1 KO (Price et al., 2012) and PGC-1α/β KO (Zechner et al., 2010) mice as previously described (Price et al., 2012). WT and PGC-1α/β KO primary myoblasts were plated and allowed to differentiate into myotubes by replacing the media with low glucose DMEM supplemented with 2% horse serum (Sigma-Aldrich) for 4 days. After the differentiation the cells were infected with empty vector or flag-SIRT1 adenovirus as described before (Gerhart-Hines et al., 2007). Media was replaced with fresh DMEM supplemented with 2% horse serum (Sigma-Aldrich) for an additional 48 hr and, after that the cells were harvested for the different assays as described. To investigate the role of HIF-1α in genome asynchrony, PGC-1α/β KO primary myotubes were treated for 12 hours with 1 mM DMOG (Sigma) or 10 μM DFO (Sigma), 24 h after infection with empty vector of flag-SIRT1 adenovirus or after 12 h treatment with […] NMN (Sigma).
# as §1
# (§2) Protein extracts from tissue or C2C12 cells were obtained by lysis in ice-cold lysis buffer (150 mM NaCl, 10 mM Tris HCl (pH 7.4), 1 mM EDTA, 1 mM EGTA, 1% Triton X-100, 0.5% NP-40) supplemented with a cocktail of protease and phosphatase inhibitors (Roche). Protein content was determined by the Bradford protein assay (Biorad), and 50 μg proteins were run on SDS-PAGE under reducing conditions. The separated proteins were then electrophoretically transferred to a polyvinylidene difluoride membrane (Perkin-Elmer). […] The immunostaining was detected using horseradish peroxidase-conjugated anti-rabbit or anti-mouse immunoglobulin for 1 h at room temperature.
# [3] = system: HIF-1α; assay: DMOG treatment of SIRT1-tg mice (HIF-1α immunoblot, qPCR, ATP content in gastrocnemius); format: in vivo; settings: DMOG IP 300 mg/kg/day, 5 days
# Protocol: Whole body SIRT1 overexpressor (SIRT1-tg) mice of 6 months of age were given interperitoneal (IP) injections of 300 mg DMOG/kg body weight per day or the equivalent volume of PBS for 5 consecutive days.
# ATP content was measured with a commercial kit according to the manufacturer's instructions (Roche).
# as §1, §2
# [4] = system: TFAM promoter; assay: TFAM promoter activity (luciferase assay) in primary WT myoblasts; format: cell-based, mouse
# Protocol: TFAM promoter, VHL promoter, HRE and c-Myc activity were determined using a luciferase-based system. Luciferase activity was measured using the Dual-Luciferase Reporter Assay System (Promega) with Renilla as the reference.
# TFAM promoter activity was evaluated using a TFAM promotes-luc plasmid. A fragment of the mouse Tfam promoter (1.4 kb upstream of the coding sequence) was cloned into a pGL4.15 vector (Promega). Luciferase activity was measured using the Dual-Luciferase Reporter Assay System (Promega) with Renilla as the reference 48 h after transfection.
# [5] = system: inflammation related markers (TNFa, IL-6, IL-18); assay: qPCR of inflammation related markers in gastrocnemius; format: in vivo, C57BL/6J mice; settings: 6-month-old mice, DMOG IP 300 mg/kg/day, 5 days
# Protocol: C57BL/6J mice of 3, 6, 22, or 24 months of age were obtained from the National Institutes of Aging mouse aging colony. Mice were acclimated for at least one-week prior to sacrifice. 3, 6, 22 and 24-month-old mice were given interperitoneal (IP) injections of 500 mg NMN/kg body weight per day or the equivalent volume of PBS for 7 consecutive days at 5:00 pm and 7:00 am on day 8 and sacrificed 4 hr after last injection. All animal studies followed the guidelines of and were approved by the Harvard Institutional Animal Care and Use Committee
# C57BL/6J mice of 6 months of age were given interperitoneal (IP) injections of 300 mg DMOG/kg body weight per day or the equivalent volume of PBS for 5 consecutive days. All animal studies followed the guidelines of and were approved by the Harvard Institutional Animal Care and Use Committee
# RNA from skeletal muscle and aorta were extracted with RNeasy mini kit (Qiagen) according to the instructions and quantified using the NanoDrop 1000 spectrophotometer (Thermo Scientific). cDNA was synthesized with the iSCRIP cDNA synthesis kit (BioRad) using 600 ng of RNA. Quantitative RT-PCR reactions were performed using 1 μM of primers and LightCycler® 480 SYBR Green Master (Roche) on an LightCycler® 480 detection system (Roche). Calculations were performed by a comparative method (2-ΔCT) using 18S as an internal control. […]
# [6] = system: primary myoblasts; assay: NAD+/NADH ratio and HIF-1α immunoblot in primary WT myoblasts treated with pyruvate or lactate; format: cell-based, mice; settings: 10 mM lactate, 24 h
# Text: FIG. 21 provides additional data related to the content of FIG. 14. FIG. 21A depicts HIF-1α target genes (PGK-1, Glut1, PDK1 and Vegfa) expression in gastrocnemius of WT and SIRT1 KO mice. Relative expression values were normalized to WT mice (n=5). FIG. 21B depicts hypoxia response element activity in primary myoblasts isolated from WT and SIRT1 KO mice and treated with or without DMOG. Relative luciferase activity was normalized to WT cells (n=6, *p<0.05 versus WT). FIG. 21C depicts a representative immunoblot of HIF-1α and Tubulin in PGC-1α/β KO myotubes treated with adenovirus overexpressing SIRT1 or empty vector as well as treatment with DMSO or with HIF stabilizing compound DMOG. FIG. 21D depicts NAD+/NADH ration measured in primary WT myoblasts treated with either 10 mM pyruvate, 10 mM lactate or vehicle for 24 h (n=4). […] FIG. 21J depicts mitochondrial DNA content analyzed by qPCR in control, HIF-1α DPA or HIF-2α DPA C2C12 cells treated with adenovirus overexpressing SIRT1 or empty vector. […] FIG. 21K depicts ARNT mRNA analyzed by qPCR in C2C12 cells infected with ARNT or nontargeting shRNA. […] FIG. 21L depicts mitochondrial DNA content analyzed by qPCR in C2C12 cells infected with ARNT or nontargeting shRNA. […] FIG. 21M depicts ND1, Cytb, COX1 and ATP6 mRNA analyzed by qPCR in C2C12 cells infected with ARNT or nontargeting shRNA. […] Values are expressed as mean±SEM. […]
# [7] = C2C12 myoblasts treated with DMOG, 16 h
smiles,measurement,setting,value
NC(=O)C1CCCc2c1[nH]c1ccc(Cl)cc21 (centres unmarked) [EX-527],genome asynchrony,"[1]; C2C12 cells, 10 μM EX-527, 12 h",induced
same,nuclear- and mitochondrial-encoded genes,[2]; PGC-1α/β KO myotubes reconstituted with PGC-1α T177A/S538A mutant,only the mitochondrial-encoded genes decreased
same,nuclear- and mitochondrial-encoded genes,[2]; PGC-1α/β KO myotubes reconstituted with WT PGC-1α,decreased both nuclear- and mitochondrial-encoded genes
"CC(=O)N(O)CCCCCNC(=O)CCC(=O)N(O)CCCCCNC(=O)CCC(=O)N(O)CCCCCN [DFO, desferrioxamine]",effect on induction of mitochondrial ETC genes by SIRT1 overexpression,[2],completely blocked
same,effect on NMN-induced expression of mitochondrially-encoded ETC genes,[2],completely abolished
"COC(=O)CNC(=O)C(=O)OC [DMOG, dimethyloxaloylglycine]",expression of mitochondrially-encoded ETC genes,[1]; [7],specific decline
same,mtDNA content,[1]; [7],specific decline
same,HIF-1α protein,[3],increase HIF-1α
same,increase in ATP levels observed in SIRT1-tg mice,[3],abolished
same,increase in the expression of mitochondrial-encoded genes observed in SIRT1-tg mice,[3],abolished the increase
same,effect on NAD (pyruvate) mediated increases in mitochondrial-encoded genes,"[2]; PGC-1α/β KO cells, pyruvate in the presence of DMOG",can be inhibited
same,HIF-1α protein,"[2]; PGC-1α/β KO myotubes, DMOG (FIG. 21C)",stabilizes HIF-1α protein
same,effect on induction of mitochondrial ETC genes by SIRT1 overexpression,[2],completely blocked
same,expression of mitochondrial-encoded genes,"[2]; PGC-1α/β knockout myotubes, DMOG compared to vehicle control",induced a decline
same,effect on NMN-induced expression of mitochondrially-encoded ETC genes,[2],completely abolished
same,full length TFAM promoter activity,[4]; DMOG vs vehicle (DMSO),reduces the full length TFAM promoter activity
same,TFAM promoter activity with c-Myc consensus sequence mutation,"[4]; DMOG, absence of the c-Myc binding site",does not have an additive effect
same,"inflammation related markers (TNFalpha, IL-6, Il-1b and IL-18) in the skeletal muscle",[5],induces inflammatory markers in the skeletal muscle
CC(O)C(=O)O (centres unmarked) [lactate],HIF-1α protein,[6],induces HIF-1α protein stabilization
same,NAD+/NADH ratio,[6],decreasing

# — patent US20150265642A1, “NAD BIOSYNTHESIS AND PRECURSORS IN THE PREVENTION AND TREATMENT OF INFLAMMATION” (PRESIDENT AND FELLOWS OF HARVARD COLLEGE, priority 2013, published 2015)
